Results reported in patent US9809623B2, “α4β7 peptide monomer and dimer antagonists” (Protagonist Therapeutics, Inc., priority 2014, dated 2017).
Where two headings read alike, the source gives them in different places. Numbered stars: 1 amine (or outer) side, 2 acyl side, 3 side chain; on linkers, the order of the positions; unused ones are H or OH. Bridge positions count the residues as written; N and C are the ends. Square brackets hold non-standard residues; d marks the D form. Peptide text beside a SMILES is read from it. I, II: the chains in the order shown. X2 = O=C(CCOCCOCCOCCOCCOCCOCCOCCOCCOCCOCCOCCOCCOCCOCCOCCOCCOCCOCCOCCOCCOCCOCCOCCOCCOCCC(=O)[*:2])[*:1]; Phe(4-tBu) = CC(C)(C)c1ccc(C[C@H](N)C(=O)O)cc1; Diglycolyl = O=C(COCC(=O)[*:2])[*:1]; NMeR = CN[C@@H](CCCNC(=N)N)C(=O)O; β3hE = N[C@@H](CCC(=O)O)CC(=O)O; Pen = CC(C)(S)[C@H](N)C(=O)O

Assays:
α4β1 = α4β1 (Homo sapiens, UniProt P05556+P13612); test: α4β1-VCAM Cell Adhesion Assay (Jurkat E6.1 human cells); format: cell-based; design: host or cells: Jurkat E6.1 human T cells
Method: Jurkat E6.1 human cells (Sigma #88042803) were cultured in RPMI 1640 HEPES medium (Invitrogen #22400-089) supplemented with 10% serum (Fetal Bovine Serum, Invitrogen #16140-071), 1 mM sodium pyruvate (Invitrogen #11360-070), 2 mM L-glutamine (Invitrogen #25030-081) and Penicillin-Streptomycin (Invitrogen #15140-122) at 100 units of penicillin and 100 μg of streptomycin per ml. The cells were washed two times in DMEM medium (ATCC #30-2002) supplemented with 0.1% BSA, 10 mM HEPES pH 7 and 1 mM MnCl2. The cells were re-suspended in supplemented DMEM medium at a density of 4×10^6 cells/ml.
A Nunc MaxiSorp plate was coated with rh VCAM-1/CD106 Fc chimera (R&D #862-VC) at 400 ng per well in 50 ul per well in 1×PBS and incubated at 4° C. overnight. The solution was then removed by shaking, blocked with 250 ul per well PBS containing 1% BSA, and incubated at 37° C. for 1 hr. The solution was removed by shaking. Peptides were diluted by serial dilution in a final volume of 50 ul per well (2× concentration). To each well, 50 ul of cells (200,000 cells) were added and the plate was incubated at 37° C., 5% CO2 for 30-45 min to allow cell adhesion. The wells were washed manually three times (100 ul per wash) with supplemented DMEM. After the final wash, 100 ul/well of supplemented DMEM and 10 ul/well of MTT reagent (ATTC cat#30-1010K) were added. The plate was incubated at 37° C., 5% CO2 for 2-3 hrs until a purple precipitate was visible. 100 ul of Detergent Reagent (ATTC cat#30-1010K) was added to each well. The plate was covered from the light, wrapped in Parafilm to prevent evaporation, and left overnight at room temperature in the dark. The plate was shaken for 5 min and the absorbance at 570 nm was measured. To calculate the dose response, the absorbance value of control wells not containing cells was subtracted from each test well.

α4β7 = α4β7 (Homo sapiens, UniProt P13612+P26010); test: α4β7-MAdCAM Cell Adhesion Assay (RPMI 8866 human cells); format: cell-based; design: host or cells: RPMI 8866 human B lymphoblastoid cells
Method in brief: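 Adhesion read-out: MTT absorbance at 570 nm minus no-cell wells, after three washes. Plates coated with rh MAdCAM-1/Fc received peptide dilutions plus 200,000 RPMI 8866 cells in Mn2+ (1 mM)-supplemented DMEM, 0.1% BSA, HEPES pH 7, incubated 30-45 min, 37 °C.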

[1] = Table 3-B, Selectivity (α4β1), range classes, read-out: α4β1 cell IC50
[2] = Table 3-B, Potency (α4β7), range classes, read-out: α4β7 cell (Hu) IC50
[3] = Table 4-B, read-out: Cell Adhesion α4β1 IC50
[4] = Table 4-B, read-out: Cell Adhesion α4β7 IC50

Sequence of α4β1 (P13612 34-1032): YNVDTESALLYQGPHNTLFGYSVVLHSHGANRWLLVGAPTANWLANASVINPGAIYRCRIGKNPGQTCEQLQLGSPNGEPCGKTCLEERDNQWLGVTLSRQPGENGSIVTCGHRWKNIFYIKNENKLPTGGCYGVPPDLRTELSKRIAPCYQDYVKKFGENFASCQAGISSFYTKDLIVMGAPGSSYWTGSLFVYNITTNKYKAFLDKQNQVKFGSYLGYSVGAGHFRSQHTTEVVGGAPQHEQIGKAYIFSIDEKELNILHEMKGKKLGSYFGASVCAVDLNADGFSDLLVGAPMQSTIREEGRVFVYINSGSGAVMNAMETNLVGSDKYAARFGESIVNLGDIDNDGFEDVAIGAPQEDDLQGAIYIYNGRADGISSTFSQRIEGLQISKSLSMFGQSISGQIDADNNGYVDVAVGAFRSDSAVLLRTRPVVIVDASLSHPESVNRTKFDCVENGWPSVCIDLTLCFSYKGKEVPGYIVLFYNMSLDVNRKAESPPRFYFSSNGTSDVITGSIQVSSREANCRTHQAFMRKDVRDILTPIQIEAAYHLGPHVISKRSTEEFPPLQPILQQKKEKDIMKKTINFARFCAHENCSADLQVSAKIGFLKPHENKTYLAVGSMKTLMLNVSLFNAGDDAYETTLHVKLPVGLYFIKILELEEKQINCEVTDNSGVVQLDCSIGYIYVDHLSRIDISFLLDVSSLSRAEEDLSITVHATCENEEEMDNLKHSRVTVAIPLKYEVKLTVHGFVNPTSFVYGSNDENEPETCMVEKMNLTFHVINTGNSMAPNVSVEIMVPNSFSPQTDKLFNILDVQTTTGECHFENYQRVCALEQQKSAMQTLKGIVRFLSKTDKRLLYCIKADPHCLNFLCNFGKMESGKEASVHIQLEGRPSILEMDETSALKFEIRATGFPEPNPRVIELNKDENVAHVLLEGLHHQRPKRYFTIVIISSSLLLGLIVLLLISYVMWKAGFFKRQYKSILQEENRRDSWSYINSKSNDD
Sequence of α4β1 (P05556 21-798): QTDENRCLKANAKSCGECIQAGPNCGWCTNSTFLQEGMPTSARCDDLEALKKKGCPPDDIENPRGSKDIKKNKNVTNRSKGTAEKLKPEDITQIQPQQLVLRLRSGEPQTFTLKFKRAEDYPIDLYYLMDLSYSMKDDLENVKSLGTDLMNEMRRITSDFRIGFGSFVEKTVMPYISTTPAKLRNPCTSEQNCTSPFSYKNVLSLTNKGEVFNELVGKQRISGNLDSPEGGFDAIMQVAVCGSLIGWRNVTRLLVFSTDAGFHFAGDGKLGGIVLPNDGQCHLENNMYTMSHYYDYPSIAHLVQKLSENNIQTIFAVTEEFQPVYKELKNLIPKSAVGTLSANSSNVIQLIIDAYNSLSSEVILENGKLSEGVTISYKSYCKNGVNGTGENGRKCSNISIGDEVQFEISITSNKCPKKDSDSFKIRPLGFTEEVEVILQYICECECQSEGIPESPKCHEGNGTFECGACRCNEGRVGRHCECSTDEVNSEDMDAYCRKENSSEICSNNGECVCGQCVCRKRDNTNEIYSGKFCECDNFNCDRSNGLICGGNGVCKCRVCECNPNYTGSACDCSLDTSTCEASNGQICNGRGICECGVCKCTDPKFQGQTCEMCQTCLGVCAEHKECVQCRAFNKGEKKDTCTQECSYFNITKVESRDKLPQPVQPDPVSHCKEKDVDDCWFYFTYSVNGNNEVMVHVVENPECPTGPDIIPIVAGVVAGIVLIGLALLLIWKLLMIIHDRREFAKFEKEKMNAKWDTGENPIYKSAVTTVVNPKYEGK
Sequence of α4β7 (P13612 34-1032): as the sequence (P13612 34-1032) above
Sequence of α4β7 (P26010 20-798): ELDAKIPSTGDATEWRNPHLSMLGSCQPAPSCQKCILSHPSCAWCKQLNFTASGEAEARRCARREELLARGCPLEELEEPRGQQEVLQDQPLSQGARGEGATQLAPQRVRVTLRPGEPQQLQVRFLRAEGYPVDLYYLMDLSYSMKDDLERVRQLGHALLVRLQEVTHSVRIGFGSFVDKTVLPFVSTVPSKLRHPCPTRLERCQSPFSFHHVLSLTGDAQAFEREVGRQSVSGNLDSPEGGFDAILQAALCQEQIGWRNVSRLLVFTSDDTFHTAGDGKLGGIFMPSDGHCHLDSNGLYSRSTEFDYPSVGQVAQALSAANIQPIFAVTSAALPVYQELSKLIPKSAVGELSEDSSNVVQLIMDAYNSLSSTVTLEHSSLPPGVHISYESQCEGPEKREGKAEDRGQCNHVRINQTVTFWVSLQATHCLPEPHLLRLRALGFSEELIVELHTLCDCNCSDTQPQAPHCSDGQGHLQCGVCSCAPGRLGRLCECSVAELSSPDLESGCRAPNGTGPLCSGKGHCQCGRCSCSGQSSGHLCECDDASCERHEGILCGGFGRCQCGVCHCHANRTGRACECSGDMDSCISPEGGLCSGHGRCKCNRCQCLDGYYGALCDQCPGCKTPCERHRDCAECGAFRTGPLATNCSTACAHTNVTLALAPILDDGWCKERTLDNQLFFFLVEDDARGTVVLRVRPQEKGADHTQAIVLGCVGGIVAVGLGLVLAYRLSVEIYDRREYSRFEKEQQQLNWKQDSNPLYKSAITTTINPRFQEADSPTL

SMILES | IC50 (α4β1; [1]) | IC50 (α4β7; [2]) | IC50 (α4β1; [3]) | IC50 (α4β7; [4])
CC(=O)N[C@@H]1C(=O)N(C)[C@@H](CCCNC(=N)N)C(=O)N[C@@H](CO)C(=O)N[C@@H](CC(=O)O)C(=O)N[C@@H]([C@@H](C)O)C(=O)N[C@@H](CC(C)C)C(=O)N[C@H](C(=O)N[C@@H](Cc2c[nH]c3ccccc23)C(=O)N[C@@H](CCC(=O)O)C(=O)N[C@H](CCCCNC(=O)COCC(=O)NCCCC[C@@H](NC(=O)[C@H](CCC(=O)O)NC(=O)[C@H](Cc2c[nH]c3ccccc23)NC(=O)[C@H]2NC(=O)[C@H](CC(C)C)NC(=O)[C@H]([C@@H](C)O)NC(=O)[C@H](CC(=O)O)NC(=O)[C@H](CO)NC(=O)[C@H](CCCNC(=N)N)N(C)C(=O)[C@@H](NC(C)=O)C(C)(C)SSC2(C)C)C(N)=O)C(N)=O)C(C)(C)SSC1(C)C [compound 67] (I: Ac-[Pen][NMeR]SDTL[Pen]WE[dK]-NH2 / II: Ac-[Pen][NMeR]SDTL[Pen]WE[dK]-NH2; disulfide I:1-I:7, II:1-II:7; linker I:10-II:10 via Diglycolyl) | > 100 µM | < 0.01 µM | – | –
CC(=O)N[C@@H]1C(=O)N(C)[C@@H](CCCNC(=N)N)C(=O)N[C@@H](CO)C(=O)N[C@@H](CC(=O)O)C(=O)N[C@@H]([C@@H](C)O)C(=O)N[C@@H](CC(C)C)C(=O)N[C@H](C(=O)N[C@@H](Cc2c[nH]c3ccccc23)C(=O)N[C@H](CCC(=O)O)C(=O)N[C@H](CCCCNC(=O)COCC(=O)NCCCC[C@@H](NC(=O)[C@@H](CCC(=O)O)NC(=O)[C@H](Cc2c[nH]c3ccccc23)NC(=O)[C@H]2NC(=O)[C@H](CC(C)C)NC(=O)[C@H]([C@@H](C)O)NC(=O)[C@H](CC(=O)O)NC(=O)[C@H](CO)NC(=O)[C@H](CCCNC(=N)N)N(C)C(=O)[C@@H](NC(C)=O)C(C)(C)SSC2(C)C)C(N)=O)C(N)=O)C(C)(C)SSC1(C)C [compound 68] (I: Ac-[Pen][NMeR]SDTL[Pen]W[dE][dK]-NH2 / II: Ac-[Pen][NMeR]SDTL[Pen]W[dE][dK]-NH2; disulfide I:1-I:7, II:1-II:7; linker I:10-II:10 via Diglycolyl) | > 100 µM | 0.025 to 0.05 µM | – | –
CC(=O)N[C@@H]1C(=O)N(C)[C@@H](CCCNC(=N)N)C(=O)N[C@@H](CO)C(=O)N[C@@H](CC(=O)O)C(=O)N[C@@H]([C@@H](C)O)C(=O)N[C@@H](CC(C)C)C(=O)N[C@H](C(=O)N[C@@H](Cc2c[nH]c3ccccc23)C(=O)N[C@@H](CCC(=O)O)C(=O)N[C@H](CCCCNC(=O)COCC(=O)NCCCC[C@@H](NC(=O)[C@H](CCC(=O)O)NC(=O)[C@H](Cc2c[nH]c3ccccc23)NC(=O)[C@H]2NC(=O)[C@H](CC(C)C)NC(=O)[C@H]([C@@H](C)O)NC(=O)[C@H](CC(=O)O)NC(=O)[C@H](CO)NC(=O)[C@H](CCCNC(=N)N)N(C)C(=O)[C@@H](NC(C)=O)C(C)(C)SSC2(C)C)C(=O)O)C(=O)O)C(C)(C)SSC1(C)C [compound 78] (I: Ac-[Pen][NMeR]SDTL[Pen]WE[dK]-OH / II: Ac-[Pen][NMeR]SDTL[Pen]WE[dK]-OH; disulfide I:1-I:7, II:1-II:7; linker I:10-II:10 via Diglycolyl) | > 100 µM | < 0.01 µM | – | –
CC(=O)N[C@@H]1C(=O)N(C)[C@@H](CCCNC(=N)N)C(=O)N[C@@H](CO)C(=O)N[C@@H](CC(=O)O)C(=O)N[C@@H]([C@@H](C)O)C(=O)N[C@@H](CC(C)C)C(=O)N[C@H](C(=O)N[C@@H](Cc2ccc(C(C)(C)C)cc2)C(=O)N[C@@H](CCC(=O)O)CC(=O)N[C@H](CCCCNC(=O)COCC(=O)NCCCC[C@@H](NC(=O)C[C@H](CCC(=O)O)NC(=O)[C@H](Cc2ccc(C(C)(C)C)cc2)NC(=O)[C@H]2NC(=O)[C@H](CC(C)C)NC(=O)[C@H]([C@@H](C)O)NC(=O)[C@H](CC(=O)O)NC(=O)[C@H](CO)NC(=O)[C@H](CCCNC(=N)N)N(C)C(=O)[C@@H](NC(C)=O)C(C)(C)SSC2(C)C)C(N)=O)C(N)=O)C(C)(C)SSC1(C)C [compound 132] (I: Ac-[Pen][NMeR]SDTL[Pen][Phe(4-tBu)][β3hE][dK]-NH2 / II: Ac-[Pen][NMeR]SDTL[Pen][Phe(4-tBu)][β3hE][dK]-NH2; disulfide I:1-I:7, II:1-II:7; linker I:10-II:10 via Diglycolyl) | > 100 µM | < 0.01 µM | – | –
CC(=O)N[C@H]1CSSC[C@@H](C(=O)NCC(=O)N[C@@H](CCC(=O)O)C(=O)N[C@@H](CCCCN)C(N)=O)NC(=O)[C@H](CC(C)C)NC(=O)[C@H]([C@@H](C)O)NC(=O)[C@H](CC(=O)O)NC(=O)[C@H](CO)NC(=O)[C@H](CCCNC(=N)N)NC1=O [compound 196, Ac-C-R-S-D-T-L-C-G-E-K-NH2] (Ac-CRSDTLCGEK-NH2; disulfide 1-7) | – | – | > 100 µM | 6.66 µM
CC(=O)N[C@H]1CSSC[C@@H](C(=O)NCC(=O)N[C@@H](CCC(=O)O)C(=O)N[C@@H](CCCCNC(=O)CCOCCOCCOCCOCCOCCOCCOCCOCCOCCOCCOCCOCCOCCOCCOCCOCCOCCOCCOCCOCCOCCOCCOCCOCCOCCC(=O)NCCCC[C@H](NC(=O)[C@H](CCC(=O)O)NC(=O)CNC(=O)[C@@H]2CSSC[C@H](NC(C)=O)C(=O)N[C@@H](CCCNC(=N)N)C(=O)N[C@@H](CO)C(=O)N[C@@H](CC(=O)O)C(=O)N[C@@H]([C@@H](C)O)C(=O)N[C@@H](CC(C)C)C(=O)N2)C(N)=O)C(N)=O)NC(=O)[C@H](CC(C)C)NC(=O)[C@H]([C@@H](C)O)NC(=O)[C@H](CC(=O)O)NC(=O)[C@H](CO)NC(=O)[C@H](CCCNC(=N)N)NC1=O [compound 197, (Ac-C-R-S-D-T-L-C-G-E-K-NH2)2-PEG25] (I: Ac-CRSDTLCGEK-NH2 / II: Ac-CRSDTLCGEK-NH2; disulfide I:1-I:7, II:1-II:7; linker I:10-II:10 via X2) | – | – | > 100 µM | 0.301 µM
CC(=O)N[C@H]1CSSC[C@@H](C(=O)NCC(=O)N[C@@H](CCC(=O)O)C(N)=O)NC(=O)[C@H](CC(C)C)NC(=O)[C@H]([C@@H](C)O)NC(=O)[C@H](CC(=O)O)NC(=O)[C@H](CO)NC(=O)[C@H](CCCNC(=N)N)N(C)C1=O [compound 198, Ac-C-N-Me-R-S-D-T-L-C-G-E-NH2] (Ac-C[NMeR]SDTLCGE-NH2; disulfide 1-7) | – | – | > 100 µM | 1.12 µM
CC(=O)N[C@H]1CSSC(C)(C)[C@@H](C(=O)N[C@H](CCCCN)C(N)=O)NC(=O)[C@H](CC(C)C)NC(=O)[C@H]([C@@H](C)O)NC(=O)[C@H](CC(=O)O)NC(=O)[C@H](CO)NC(=O)[C@H](CCCNC(=N)N)N(C)C1=O [compound 202, Ac-C-N-Me-R-S-D-T-L-Pen-k-NH2] (Ac-C[NMeR]SDTL[Pen][dK]-NH2; disulfide 1-7) | – | – | > 100 µM | 11 µM
CC(=O)N[C@H]1CSSC(C)(C)[C@@H](C(=O)N[C@@H](Cc2c[nH]c3ccccc23)C(=O)N[C@H](CCCCNC(=O)COCC(=O)NCCCC[C@@H](NC(=O)[C@H](Cc2c[nH]c3ccccc23)NC(=O)[C@H]2NC(=O)[C@H](CC(C)C)NC(=O)[C@H]([C@@H](C)O)NC(=O)[C@H](CC(=O)O)NC(=O)[C@H](CO)NC(=O)[C@H](CCCNC(=N)N)N(C)C(=O)[C@@H](NC(C)=O)CSSC2(C)C)C(N)=O)C(N)=O)NC(=O)[C@H](CC(C)C)NC(=O)[C@H]([C@@H](C)O)NC(=O)[C@H](CC(=O)O)NC(=O)[C@H](CO)NC(=O)[C@H](CCCNC(=N)N)N(C)C1=O [compound 204, (Ac-C-N-Me-R-S-D-T-L-Pen-W-k-NH2)2-DIG] (I: Ac-C[NMeR]SDTL[Pen]W[dK]-NH2 / II: Ac-C[NMeR]SDTL[Pen]W[dK]-NH2; disulfide I:1-I:7, II:1-II:7 (inferred); linker I:9-II:9 via Diglycolyl (inferred)) | – | – | > 100 µM | 0.022 µM
CC(=O)N[C@@H]1C(=O)N(C)[C@@H](CCCNC(=N)N)C(=O)N[C@@H](CO)C(=O)N[C@@H](CC(=O)O)C(=O)N[C@@H]([C@@H](C)O)C(=O)N[C@@H](CC(C)C)C(=O)N[C@H](C(=O)N[C@@H](Cc2c[nH]c3ccccc23)C(=O)N[C@H](CCCCNC(=O)COCC(=O)NCCCC[C@@H](NC(=O)[C@H](Cc2c[nH]c3ccccc23)NC(=O)[C@H]2NC(=O)[C@H](CC(C)C)NC(=O)[C@H]([C@@H](C)O)NC(=O)[C@H](CC(=O)O)NC(=O)[C@H](CO)NC(=O)[C@H](CCCNC(=N)N)N(C)C(=O)[C@@H](NC(C)=O)C(C)(C)SSC2(C)C)C(N)=O)C(N)=O)C(C)(C)SSC1(C)C [compound 209, (Ac-Pen-N-Me-R-S-D-T-L-Pen-W-k-NH2)2-DIG] (I: Ac-[Pen][NMeR]SDTL[Pen]W[dK]-NH2 / II: Ac-[Pen][NMeR]SDTL[Pen]W[dK]-NH2; disulfide I:1-I:7, II:1-II:7 (inferred); linker I:9-II:9 via Diglycolyl (inferred)) | – | – | > 100 µM | 0.024 µM
